Reference: PMC6320914 (Pharmaceutics, 2018)
Entries after “also recorded” stand apart in the source; their conditions may differ. Square brackets hold non-standard residues; d marks the D form. Peptide text beside a SMILES is read from it. * marks the point of attachment. Daunorubicin(13-NOCH2CO) = COc1cccc2c1C(=O)c1c(O)c3c(c(O)c1C2=O)C[C@@](O)(C(C)=NOCC(=O)*)C[C@@H]3O[C@H]1C[C@H](N)[C@H](O)[C@H](C)O1; pGlu = O=C1CC[C@@H](C(=O)O)N1; Butyryl = CCCC(=O)*

Columns and labels:
[1] = tested on: MDA-MB-231 human breast cancer cells; assay type: cell-based; conditions: 24 h treatment in serum-free medium (0.068–150 µM), then 48 h in complete medium; alamarBlue fluorescence; mean ± SE, performed twice, four parallels
Description: (§1) Dulbecco’s Modified Eagle Medium (DMEM, Lonza, Basel, Switzerland), supplemented with 10% (v/v) Fetal Bovine Serum (FBS, Lonza), L-glutamine (2 mM, Lonza), non-essential amino acids (NEAA, Sigma-Aldrich Kft), sodium pyruvate (1 mM, Lonza) and Penicillin-Streptomycin (Lonza) was used to culture MCF-7 human breast adenocarcinoma cells (ATCC:HTB-22). HT-29 human colon adenocarcinoma cells (ATCC:HTB-38) were maintained in RPMI-1640 (Lonza), supplied with 10% FBS, L-glutamine and Penicillin-Streptomycin. MDA-MB-231 breast adenocarcinoma cells were cultured in DMEM (Lonza), supplemented with 10% FBS and Penicillin-Streptomycin. Cells were maintained in plastic culture dishes at 37 °C with a humidified atmosphere containing 5% CO2/95% air.
(§2) 5 × 10^3 cells per well were seeded to 96-well plates (Sarstedt, Nümbrecht, Germany), in a complete cell medium. After 24 h, the cells were treated with bioconjugates in a serum-free medium (concentration range 0.068–150 µM, control wells were treated with a serum-free medium). On the next day, cells were washed two times with a serum-free medium and incubated in a complete medium for 48 h. The cell viability was determined using alamarBlue reagent® (ThermoFisher Scientific) by following the manufacturer’s instructions. A Synergy H4 multi-mode microplate reader (BioTek, Winooski, VT, USA) was used for fluorescence detection (λEx = 570 and at λEM = 620 nm). Experiments were performed twice, using four parallels per concentration. Cell viabilities (and IC50 values) were calculated with Origin Pro8 (OriginLab Corp., Northampton, MA, USA.) using a nonlinear regression (sigmoidal dose–response).

[2] = tested on: MCF-7 human breast cancer cells; assay type: cell-based; conditions: 24 h treatment in serum-free medium (0.068–150 µM), then 48 h in complete medium; alamarBlue fluorescence; mean ± SE, performed twice, four parallels
Description: as §1, §2

[3] = tested on: HT-29 human colon cancer cells; assay type: cell-based; conditions: 24 h treatment in serum-free medium (0.068–150 µM), then 48 h in complete medium; alamarBlue fluorescence; mean ± SE, performed twice, four parallels
Description: as §1, §2

90% human plasma = conditions: 37 °C, up to 24 h
[4] = rat liver lysosomal homogenate in 0.2 M NH4OAc buffer (pH 5); conditions: 37 °C, up to 24 h
[5] = biological target: T1, GnRH-RI expressed on human prostate cancer (Homo sapiens, UniProt P30968); set-up: method as in PMID 10647698, PMID 20859992; conditions: concentrations up to 1 µM; cited from earlier work
T1 construct: Tissue samples of human prostate cancer cells were obtained from a patient at the time of initial surgical treatment; from tissue; host or cells: human prostate cancer surgical specimen, cell membrane homogenate
T1 sequence (P30968 1-328): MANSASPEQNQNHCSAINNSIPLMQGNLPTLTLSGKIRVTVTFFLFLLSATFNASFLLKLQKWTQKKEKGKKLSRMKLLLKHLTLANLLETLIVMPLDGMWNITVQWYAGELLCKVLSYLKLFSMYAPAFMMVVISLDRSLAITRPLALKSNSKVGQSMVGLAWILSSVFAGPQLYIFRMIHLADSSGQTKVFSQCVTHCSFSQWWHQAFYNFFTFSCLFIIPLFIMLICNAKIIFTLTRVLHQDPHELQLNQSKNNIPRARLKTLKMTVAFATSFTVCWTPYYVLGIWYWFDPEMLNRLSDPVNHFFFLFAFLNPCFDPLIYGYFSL

[6] = biological target: T1, GnRH-RI expressed on human prostate cancer; assay: Radioligand competition with [125I]-triptorelin, human prostate cancer membranes; assay type: binding; conditions: membrane fractions of human prostate cancer specimens, Figure 5
Description: Ligand competition assays with radiolabeled triptorelin were performed to evaluate the binding affinity of K2 and 10 to GnRH-RI expressed on human pituitary and human prostate cancer cells as reported earlier. Tissue samples of human prostate cancer cells were obtained from a patient at the time of initial surgical treatment and normal human pituitary tissue (anterior lobe) derived by autopsy. All subjects gave their informed consent for inclusion before they participated in the study. The collection and the use of these specimens for our studies were conducted in accordance with the Declaration of Helsinki and approved by the local Institutional Ethics Committee (UD REC/IEC 4831-2017). To study the binding affinity of the compounds, cell membrane homogenates were prepared as previously described. Apart from that, triptorelin was radioiodinated using the chloramine-T method, followed by purification by RP-HPLC [34, 40, 41, 44]. To determine the binding affinities of the nonradio-labeled GnRH-III bioconjugates to GnRH-RI, the displacement of [^125I]-GnRH-I-[^6D-Trp] was studied by an in vitro ligand competition assay. […] To determine the protein concentration by the method of Bradford, a Bio-Rad protein assay kit (Bio-Rad Laboratories, USA) was used. The LIGAND-PC computerized curve-fitting program of Munson and Rodbard was used to determine the receptor binding characteristics and IC50 values.

With `CCCC(=O)NCCCC[C@H](NC(=O)[C@H](Cc1c[nH]c2ccccc12)NC(=O)[C@H](Cc1c[nH]cn1)NC(=O)[C@@H]1CCC(=O)N1)C(=O)N[C@@H](Cc1c[nH]cn1)C(=O)N[C@@H](CC(=O)O)C(=O)N[C@@H](Cc1c[nH]c2ccccc12)C(=O)N[C@@H](CCCCNC(=O)CON=C(C)[C@]1(O)Cc2c(O)c3c(c(O)c2[C@@H](O[C@H]2C[C@H](N)[C@H](O)[C@H](C)O2)C1)C(=O)c1c(OC)cccc1C3=O)C(=O)N1CCC[C@H]1C(=O)NCC` [compound 14] ([pGlu]HWK(Butyryl)HDWK(Daunorubicin(13-NOCH2CO))P-NHEt) the IC50 [1] was 12.4 ± 2.3 µM, the IC50 [2] was 2.23 ± 0.4 µM and the IC50 [3] was 17.84 ± 0.08 µM.
For <E-D-Tic-K(Bu)HDWK(Dau=Aoa)PG-NH2, the not cleaved (90% human plasma) was “stable for at least 24 h”, the cleaved bond [4] was “Lys(Bu)4-His5; also recorded: His5-Asp6; also recorded: Asp6-Trp7; also recorded: Trp7-Lys(Dau=Aoa)8; also recorded: Lys(Dau=Aoa)8-Pro9; also recorded: Pro9-Gly10” and the fragment found [4] was “<E-D-Tic-K(Bu)HDWK(Dau=Aoa)-OH; also recorded: <E-D-Tic-K(Bu)HD-OH; also recorded: <E-D-Tic-K(Bu)H-OH; also recorded: H-K(Dau=Aoa)P-OH; also recorded: H-Lys(Dau=Aoa)-OH, 1 h”.
In the case of <EHWK(Bu)HDWK(Dau=Aoa)PG-NH2, the not cleaved (90% human plasma) is reported as “stable for at least 24 h” and the cleaved bond [4] is reported as “Pro9-Gly10; also recorded: His2-Trp3; also recorded: Trp3-Lys(Bu)4; also recorded: Lys(Bu)4-His5, first_seen, 5 min; also recorded: His5-Asp6; also recorded: Asp6-Trp7; also recorded: Trp7-Lys(Dau=Aoa)8; also recorded: Lys(Dau=Aoa)8-Pro9”.
For bombesin, the displacement of triptorelin [5] is listed as “not able to displace triptorelin”.
With epidermal growth factor the “displacement of [125I]-GnRH-I-[6D-Trp] binding” value [6] was “did not displace the radioligand”.
With human growth hormone the “displacement of [125I]-GnRH-I-[6D-Trp] binding” value [6] was “did not displace the radioligand”.
With somatostatin [reference compound] the “displacement of [125I]-GnRH-I-[6D-Trp] binding” value [6] was “did not displace the radioligand”.
In the case of somatostatin-14, the displacement of triptorelin [5] is listed as “not able to displace triptorelin”.
